Where two headings read alike, the source gives them in different places.
How the values were obtained:
[1] = Compound 2 concentrations in plasma by LC-MS/MS; assay type: in vivo, SCID mice; conditions: for concentration at 0.5 h / concentration at 1 h / concentration at 3 h / concentration at 6 h / concentration at 10 h / concentration at 24 h / AUC(0-t): female, SCID, mouse, plasma; for concentration at 0.5 h / concentration at 1 h / concentration at 3 h / concentration at 6 h / concentration at 10 h / concentration at 24 h: oral; for AUC(0-t): po
PC3 tumors = experiment: Apoptosis TUNEL assay in PC3 tumors (Compound 1, rapamycin); assay type: in vivo, SCID mice; conditions: 25 mg/kg oral QD for 6 days, 2 hours after last dose
Protocol: Two hours after the last dose of either vehicle, Compound 1, or rapamycin, the mice were euthanized and the tumors were dissected. The tumors were snap frozen in liquid nitrogen and processed for immunohistochemistry (IHC) and TUNEL.
To detect the apoptotic cells, fluorescence in situ cell death detection kit (Roche Biosciences) was used. Five to ten micron thick cryostat sections were fixed in 4% paraformaldehyde for 15 minutes at room temperature, washed, permeabilized with 0.3% triton X-100 and 0.1% sodium citrate in PBS for 10 minutes. Sections were then washed in PBS and incubated with a labeling solution containing TdT enzyme for 1 hour at 37° C. in the dark. The sections were washed in PBS, counterstained with Hoechst dye (0.4 μg/mL) at room temperature for 10 minutes and mounted in Prolong Gold antifade reagent.
The tissues sections processed for apoptosis or immunostained for proliferating cells (Ki-67) or blood vessels were quantitated using Metamorph software. Using 20× objective, 5 different fields from each section, 2 to 4 sections from each tumor, and 3 to 4 tumors from each treatment group or control were used for quantitation. The area of interest was expressed as the percent threshold area of the total area.

For CCN1C(=O)CNc2ncc(-c3ccc(-c4nc[nH]n4)nc3C)nc21 [Compound 2, 1-ethyl-7-(2-methyl-6-(1H-1,2,4-triazol-3-yl)pyridin-3-yl)-3,4-dihydropyrazino[2,3-b]pyrazin-2(1H)-one], the “Plasma Compound 2 Concentration (μM) Mean ± SEM” value ([1]; 0.1 mg/kg single oral dose, 24 h) was “BLQ”, the “Plasma Concentration (μM) Mean ± SEM” value ([1]; 2 mg/kg QD, 10 h after last dose) was 0.21 ± 0.05 µM and the concentration at 0.5 h ([1]; 0.1 mg/kg, Plasma Compound 2 Concentration (μM) Mean ± SEM, 0.1 mg/kg single oral dose) was 0.05 µM. It also gave a concentration at 1 h ([1]; 0.1 mg/kg, Plasma Compound 2 Concentration (μM) Mean ± SEM, 0.1 mg/kg single oral dose, 1 h) of 0.04 µM, a concentration at 3 h ([1]; 0.1 mg/kg, Plasma Compound 2 Concentration (μM) Mean ± SEM, 0.1 mg/kg single oral dose, 3 h) of 0.02 µM and a concentration at 6 h ([1]; 0.1 mg/kg, Plasma Compound 2 Concentration (μM) Mean ± SEM, 0.1 mg/kg single oral dose, 6 h) of 0.02 µM. It also gave a concentration at 10 h ([1]; 0.1 mg/kg, Plasma Compound 2 Concentration (μM) Mean ± SEM, 0.1 mg/kg single oral dose, 10 h) of 0.01 µM, a concentration at 0.5 h ([1]; 0.3 mg/kg, Plasma Compound 2 Concentration (μM) Mean ± SEM, 0.3 mg/kg single oral dose) of 0.16 ± 0.03 µM and a concentration at 1 h ([1]; 0.3 mg/kg, Plasma Compound 2 Concentration (μM) Mean ± SEM, 0.3 mg/kg single oral dose, 1 h) of 0.16 ± 0.01 µM. The concentration at 3 h ([1]; 0.3 mg/kg, Plasma Compound 2 Concentration (μM) Mean ± SEM, 0.3 mg/kg single oral dose, 3 h) was 0.07 ± 0.01 µM, the concentration at 6 h ([1]; 0.3 mg/kg, Plasma Compound 2 Concentration (μM) Mean ± SEM, 0.3 mg/kg single oral dose, 6 h) was 0.07 ± 0.01 µM and the concentration at 10 h ([1]; 0.3 mg/kg, Plasma Compound 2 Concentration (μM) Mean ± SEM, 0.3 mg/kg single oral dose, 10 h) was 0.04 ± 0.01 µM. It also gave a concentration at 24 h ([1]; 0.3 mg/kg, Plasma Compound 2 Concentration (μM) Mean ± SEM, 0.3 mg/kg single oral dose, 24 h) of 0 µM, a concentration at 1 h ([1]; 1 mg/kg, 1 mg/kg BID, 1 h after last dose, read-out: Plasma Concentration (μM) Mean ± SEM) of 0.73 ± 0.14 µM and a concentration at 3 h ([1]; 1 mg/kg, 1 mg/kg BID, 3 h after last dose, read-out: Plasma Concentration (μM) Mean ± SEM) of 0.48 ± 0.04 µM. For the same molecule, the concentration at 6 h ([1]; 1 mg/kg, 1 mg/kg BID, 6 h after last dose, read-out: Plasma Concentration (μM) Mean ± SEM) was 0.22 ± 0.04 µM, the concentration at 10 h ([1]; 1 mg/kg, 1 mg/kg BID, 10 h after last dose, read-out: Plasma Concentration (μM) Mean ± SEM) was 0.11 ± 0.01 µM and the concentration at 24 h ([1]; 1 mg/kg, 1 mg/kg BID, 24 h after last dose, read-out: Plasma Concentration (μM) Mean ± SEM) was 0.02 µM. It also gave a concentration at 10 h ([1]; 1 mg/kg, 1 mg/kg single dose, read-out: plasma concentration at which pS6RP and pAKT (S473) were inhibited through 10 hours) of 0.12 ± 0.003 µM, a concentration at 1 h ([1]; 1 mg/kg, Plasma Compound 2 Concentration (μM) Mean ± SEM, 1 mg/kg single oral dose, 1 h) of 0.53 ± 0.02 µM and a concentration at 3 h ([1]; 1 mg/kg, Plasma Compound 2 Concentration (μM) Mean ± SEM, 1 mg/kg single oral dose, 3 h) of 0.34 ± 0.01 µM. It also gave a concentration at 6 h ([1]; 1 mg/kg, Plasma Compound 2 Concentration (μM) Mean ± SEM, 1 mg/kg single oral dose, 6 h) of 0.13 ± 0.01 µM, a concentration at 10 h ([1]; 1 mg/kg, Plasma Compound 2 Concentration (μM) Mean ± SEM, 1 mg/kg single oral dose, 10 h) of 0.12 µM and a concentration at 24 h ([1]; 1 mg/kg, Plasma Compound 2 Concentration (μM) Mean ± SEM, 1 mg/kg single oral dose, 24 h) of 0.005 µM. The concentration at 1 h ([1]; 2 mg/kg, 2 mg/kg QD, 1 h after last dose, read-out: Plasma Concentration (μM) Mean ± SEM) was 1.02 ± 0.2 µM, the concentration at 3 h ([1]; 2 mg/kg, 2 mg/kg QD, 3 h after last dose, read-out: Plasma Concentration (μM) Mean ± SEM) was 0.59 ± 0.08 µM and the concentration at 6 h ([1]; 2 mg/kg, 2 mg/kg QD, 6 h after last dose, read-out: Plasma Concentration (μM) Mean ± SEM) was 0.27 ± 0.08 µM. It also gave a concentration at 10 h ([1]; 2 mg/kg, 2 mg/kg QD, 10 h after last dose, read-out: Plasma Concentration (μM) Mean ± SEM) of 0.21 µM, a concentration at 24 h ([1]; 2 mg/kg, 2 mg/kg QD, 24 h after last dose, read-out: Plasma Concentration (μM) Mean ± SEM) of 0.02 ± 0.01 µM and a concentration at 24 h ([1]; 5 mg/kg, Compound 2 in the plasma, efficacy study, 5 mg/kg QD, 24 hours after the last dose) of 0.13 µM. For the same molecule, the concentration at 1 h ([1]; 10 mg/kg, Plasma Compound 2 Concentration (μM) Mean ± SEM, 10 mg/kg single oral dose, 1 h) was 6.78 ± 1.16 µM, the concentration at 3 h ([1]; 10 mg/kg, Plasma Compound 2 Concentration (μM) Mean ± SEM, 10 mg/kg single oral dose, 3 h) was 5.69 ± 0.96 µM and the concentration at 6 h ([1]; 10 mg/kg, Plasma Compound 2 Concentration (μM) Mean ± SEM, 10 mg/kg single oral dose, 6 h) was 2.1 ± 0.22 µM. The concentration at 10 h ([1]; 10 mg/kg, Plasma Compound 2 Concentration (μM) Mean ± SEM, 10 mg/kg single oral dose, 10 h) was 1.18 ± 0.2 µM, the concentration at 24 h ([1]; 10 mg/kg, Plasma Compound 2 Concentration (μM) Mean ± SEM, 10 mg/kg single oral dose, 24 h) was 0.8 ± 0.09 µM and the AUC(0-t) ([1]; 0.5 mg/kg, 0.5 mg/kg BID, after last dose, read-out: total plasma AUC0-10 h) was 1.42 µM·h. For the same molecule, the AUC(0-t) ([1]; 1 mg/kg, 1 mg/kg BID, after last dose, read-out: total plasma AUC0-10 h) was 3.27 µM·h, the AUC(0-t) ([1]; 1 mg/kg, 1 mg/kg QD (BID/QD study), read-out: total plasma AUC0-24 h) was 2.95 µM·h and the AUC(0-t) ([1]; 1 mg/kg, 1 mg/kg QD, last day, read-out: total plasma AUC0-24 h) was 2.33 µM·h. The AUC(0-t) ([1]; 2 mg/kg, 2 mg/kg QD, last day, read-out: total plasma AUC0-24 h) was 5.93 µM·h and the AUC(0-t) ([1]; 5 mg/kg, 5 mg/kg QD, last day, read-out: total plasma AUC0-24 h) was 17 µM·h.
For CO[C@H]1CC[C@H](N2C(=O)CNc3ncc(-c4ccc(C(C)(C)O)nc4)nc32)CC1 [Compound 1, 7-(6-(2-hydroxypropan-2-yl)pyridin-3-yl)-1-((1r,4r)-4-methoxycyclohexyl)-3,4-dihydropyrazino-[2,3-b]pyrazin-2(1H)-one], the “TUNEL-positive cells compared with the vehicle control” value (PC3 tumors) was “about a two fold increase”.

From patent US20140113904A1, “TREATMENT OF CANCER WITH TOR KINASE INHIBITORS” (SIGNAL PHARMACEUTICALS, LLC, priority 2012, published 2014)
